Measurements: PubChem BioAssay (NCI)
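Each compound was tested at five concentrations against cells in 96-well plates for 48 hours. At the GI50, growth is halved. At the TGI there is no net growth.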

Tests used:
Experiment in all cases: NCI-60 cell line screen, 48 h
[1] = test system: CCRF-CEM leukemia
[2] = test system: HOP-62 NSCLC
[3] = test system: SR leukemia
[4] = test system: OVCAR-4 ovarian
[5] = test system: COLO 205 colon
[6] = test system: M19-MEL melanoma
[7] = test system: DMS 114 small cell lung
[8] = test system: OVCAR-5 ovarian
[9] = test system: ACHN renal
[10] = test system: MCF7 breast

Compound	TGI [1]	TGI [2]	TGI [3]	TGI [4]	TGI [5]	TGI [6]	TGI [7]	TGI [8]	TGI [9]	GI50 [1]	GI50 [2]	GI50 [3]	GI50 [4]	GI50 [5]	GI50 [8]	GI50 [9]	GI50 [10]	TGI [10]
CCCC(O)[C@@H](O)c1ccc2c(c1O)C(=O)c1c(OC)cccc1C2=O (some centres undefined)	85.7 µM	> 100 µM	66.6 µM	> 100 µM	44.8 µM	61.5 µM	61.9 µM	> 100 µM	> 100 µM									
NC(=O)OCC(COc1ccc(Cl)cc1)OC(=O)c1ccccc1Cl (centres undefined)	47.4 µM	49.2 µM	51.7 µM		32.7 µM		28.1 µM	62.8 µM	95.1 µM									
COc1cc(/C=C\c2ccccn2)cc(OC)c1OC	> 100 µM	> 100 µM		> 100 µM	> 100 µM	> 100 µM	> 100 µM	> 100 µM	> 100 µM									
O=C1C(Cl)=C(N/N=c2/[nH][nH]/c(=N/NC3=C(Cl)C(=O)c4ccccc4C3=O)c3ccccc23)C(=O)c2ccccc21	56.7 µM	23.2 µM	59.1 µM	28.5 µM	32.9 µM			39.1 µM	28.2 µM	10 µM	10.2 µM	9.97 µM	12 µM	16.1 µM	18.7 µM	12.7 µM	12.3 µM	38.4 µM
C=C(C)[C@@H]1CC[C@]2(C(=O)NCCCN)CC[C@]3(C)[C@H](CC[C@@H]4[C@@]5(C)CC[C@H](O)C(C)(C)[C@@H]5CC[C@]43C)[C@@H]12	> 100 µM	88.4 µM	> 100 µM	> 100 µM	> 100 µM			31.3 µM	59.9 µM	22.1 µM	18.3 µM	9.05 µM	25.6 µM	21 µM	14.8 µM	21.7 µM	10.7 µM	95.8 µM
CCn1c(-c2nonc2N)nc2cncc(C(=O)N3CCNCC3)c21	> 25 µM	> 25 µM	> 25 µM	> 25 µM	> 25 µM			> 25 µM	> 25 µM	> 25 µM	> 25 µM	> 25 µM	> 25 µM	> 25 µM	> 25 µM	> 25 µM	> 25 µM	> 25 µM
CC12CCC(=O)C=C1CCC1C2CCC2(C)C(C(=O)Cn3cnc4c(=S)nc[nH]c43)CCC12 (centres undefined)	> 100 µM	47.1 µM	> 100 µM	55 µM	> 100 µM			> 100 µM	> 100 µM									36.7 µM
CCOP(=O)(OCC)C1CCCCOC1=O (centres undefined)	> 100 µM	> 100 µM		> 100 µM	> 100 µM	> 100 µM	> 100 µM		> 100 µM									
C=C1C(=O)OC2CC3(C)C=CC(=O)C(=C)C3CC12 (centres undefined)		19.2 µM	12.4 µM	6.55 µM	3.05 µM	3.51 µM	9.57 µM	8.05 µM	3.35 µM									
Nc1cc(=O)[nH]c(SC2=NC(N)CC(O)C2)n1 (centres undefined)	> 100 µM	> 100 µM	> 100 µM	> 100 µM	> 100 µM	> 100 µM	> 100 µM	> 100 µM	> 100 µM									
